Laboratory results published in patent US20140179518A1, “Pesticidal Mixtures Comprising Cyanosulfoximine Compounds” (BASF SE, priority 2007, published 2014).
Like-named read-outs stand apart in the source and are kept apart here.

Experiments:
Assay type in all cases: cell-based
Conditions in all cases: single active
Septoria tritici = assay: Activity against leaf blotch on wheat caused by Septoria tritici (Septtr), microtiter plate
Pyricularia oryzae = system: Pyricularia oryzae
Phytophthora infestans = system: Phytophthora infestans
Botrytis cinerea = assay: Activity against the grey mold Botrytis cinerea in the microtiterplate test (Botrci)
[1] = 4 ppm, 405 nm, 7 days after inoculation
[2] = 63 ppm, 405 nm, 7 days after inoculation

## COC=C(C(=O)OC)c1ccccc1COc1cccc(C(F)(F)F)n1 [Picoxystrobin, methyl 3-methoxy-2-[2-(6-trifluoromethylpyridin-2-yloxymethyl)phenyl]acrylate]
Septoria tritici; 0.063 ppm, 7 days
  Observed efficacy: 63%

## Fc1ccc(Oc2ccnc3cc(Cl)cc(Cl)c23)cc1 [Quinoxyfen, 5,7-dichloro-4-(4-fluorophenoxy)quinoline]
Pyricularia oryzae; 16 ppm, 7 days
  Observed efficacy: 4%

## CC(C)(C)C(O)(CCc1ccc(Cl)cc1)Cn1cncn1 (centres unmarked) [Tebuconazol, 1-(4-chlorophenyl)-4,4-dimethyl-3-[1,2,4]triazol-1-ylmethylpentan-3-ol]
Septoria tritici; 0.25 ppm, 7 days
  Observed efficacy: 67%

## CC(c1ccc(C(F)(F)F)nc1)S(C)(=O)=NC#N (centres unmarked) [C.I.10]
Phytophthora infestans; 1 ppm, 7 days
  Observed efficacy: 0%
Septoria tritici; 1 ppm, 7 days
  Observed efficacy: 0%
Septoria tritici; [1]
  Observed efficacy: 2%
Botrytis cinerea; 4 ppm, 7 days
  Observed efficacy: 3%

## N#CN=S1(=O)CCCC1Cc1ccc(Cl)nc1 (centres unmarked) [C.I.5]
Phytophthora infestans; 1 ppm, 7 days
  Observed efficacy: 0%
Pyricularia oryzae; 16 ppm, 7 days
  Observed efficacy: 3%
Septoria tritici; 0.25 ppm, 7 days
  Observed efficacy: 0%
Septoria tritici; [1]
  Observed efficacy: 2%
Botrytis cinerea; 16 ppm, 7 days
  Observed efficacy: 0%

## N#Cc1sc2c(=O)c3ccccc3c(=O)c=2sc1C#N [Dithianon, 5,10-dioxo-5,10-dihydronaphtho[2,3-b][1,4]dithiin-2,3-dicarbonitrile]
Botrytis cinerea; 0.25 ppm, 7 days
  Observed efficacy: 12%

## Fc1ccc([C@]2(Cn3cncn3)O[C@H]2c2ccccc2Cl)cc1 (racemic) [Epoxiconazol, (2RS,3SR)-1-[3-(2-chlorophenyl)-2,3-epoxy-2-(4-fluorophenyl)propyl]-1H-1,2,4-triazole]
Septoria tritici; 0.063 ppm, 7 days
  Observed efficacy: 68%
Botrytis cinerea; 0.063 ppm, 7 days
  Observed efficacy: 3%

## CCNC(=O)NC(=O)C(C#N)=NOC [Cymoxanil, 1-(2-cyano-2-methoxyiminoacetyl)-3-ethylurea]
Phytophthora infestans; 0.25 ppm, 405 nm, 7 days after inoculation
  Observed efficacy: 32%
Pyricularia oryzae; [2]
  Observed efficacy: 8%
Botrytis cinerea; [2]
  Observed efficacy: 17%

## CO/N=C(/C1=NOCCO1)c1ccccc1Oc1ncnc(Oc2ccccc2Cl)c1F [Fluoxastrobin, (E)-{2-[6-(2-chlorophenoxy)-5-fluoropyrimidin-4-yloxy]phenyl}(5,6-dihydro-1,4,2-dioxazin-3-yl)methanone O-methyloxime]
Septoria tritici; 0.016 ppm, 7 days
  Observed efficacy: 15%

## CC(C)OC(=O)N[C@H](C(=O)N[C@H](C)c1nc2ccc(F)cc2s1)C(C)C [Benthivalicarb, isopropyl {(S)-1-[(1R)-1-(6-fluorobenzothiazol-2-yl)-ethylcarbamoyl]-2-methylpropyl}carbamate]
Phytophthora infestans; 0.063 ppm, 7 days
  Observed efficacy: 65%
